Assay results as given in US20030125337A1, “Inhibitors of multidrug transporters” (priority 1998, published 2003).
In brackets after ≈: the same amount, converted by molar mass. Like-named read-outs stand apart in the source and are kept apart here.

Legend:
[1] = test system: S. pneumoniae (SPC2A); experiment: Minimal inhibitor concentration decreasing the ciprofloxacin MIC two fold, S. pneumoniae SPC2A; type: cell-based; conditions: Streptococcus pneumoniae, read-out: IC50 S. Pneumoniae
[2] = test system: HeLa cell line; experiment: Toxicity on HeLa cell line, Cell Titer 96 AQueous MTS-based assay; set-up: species or system human; conditions: for Selectivity Index (Toxicity HeLa/Effectivity): HeLa IC50 / S. aureus effectivity IC50; for IC50: Homo sapiens, 72 h, HeLa, read-out: Toxicity HeLa IC50
Protocol: Here the inventors proposed to test the toxicity of the identified lead compounds on several human cell lines. To date, the inventors have determined the IC50 of the lead compounds for the HeLa cell line, the results of which are presented in Table 6. The toxicity of the compounds at concentrations ranging from 0.7 μg/ml to 100 μμg/ml was determined in a 96 well plate by adding the compounds to cells 24 h after seeding at a density of 10^4 per well. After incubation with the compounds for 3 days the effect on cell growth was determined using the Cell Titer 96 AQueous MTS-based assay (Promega, Madison, Wis.).

[3] = test system: S. aureus strain SA1199B; experiment: Checkerboard synergy testing of inhibitors with ciprofloxacin, S. aureus SA1199B; type: cell-based; conditions: combination with ciprofloxacin
Protocol: (§1) Synergy testing was performed with the strain NA by checkerboard titration in microtiter plates using two-fold serial broth microdilution (Eliopoulus and Moellering Jr., 1996). […] Wells were assessed visually for growth after an 18 h incubation period. The Fractional Inhibitory Concentration (FIC) was calculated for each inhibitor and ethidium combination. The following formulae were used to calculate the FIC index: [drawing 43]
(§2) The inventors have quantitated the effects of the combination of the NorA inhibitors with ciprofloxacin, currently the most widely used fluoroquinolone and the second most prescribed antibiotic. Synergy testing was performed by checkerboard titration as described above for ethidium. […] All five compounds acted in a synergistic manner with ciprofloxacin, having FIC indices <0.5 (see Table 4). The inventors concluded that, similarly to their effects on the bacteriotoxicity of ethidium, each of the tested NorA inhibitors promotes the bacteriotoxicity of ciprofloxacin in a synergistic manner.

[4] = test system: S. aureus (SA1199B); experiment: Minimal inhibitor concentration decreasing the ciprofloxacin MIC two fold, S. aureus SA1199B; type: cell-based; conditions: Staphylococcus aureus, read-out: Effectivity IC50* S. Aureus
[5] = test system: strain NA; experiment: Checkerboard synergy testing of inhibitors with ethidium, strain NA; type: cell-based, B. subtilis; conditions: for FIC index: combination with ethidium, strain NA, 18 h, synergy = FIC index <0.5
Protocol: as §1
Synergy was defined as an FIC index of <0.5.

[6] = test system: NA strain; experiment: Checkerboard synergy testing of inhibitors with ciprofloxacin, NA strain; type: cell-based, B. subtilis; conditions: combination with ciprofloxacin
Protocol: as §1, §2

[7] = test system: wild type S. aureus SA1199; type: cell-based; conditions: INF inhibitors 5 μg/ml, reserpine 20 μg/ml; for Frequency of emergence of variants resistant to two fold the MIC of ciprofloxacin, Spontaneous: SA1199, ciprofloxacin 1 μg/ml, 48 h; for Frequency of emergence of variants resistant to two fold the MIC of ciprofloxacin, Mutagenized: SA1199 mutagenized with ethylmethane sulfonate; for Fold inhibition of emergence of resistance: ciprofloxacin resistance, SA1199
Protocol: The effect of the inhibitors on the rate of emergence of in vitro selected single-step ciprofloxacin resistant mutants of wild type S. aureus SA1199 (Kaatz et al., 1990) was determined.
Ciprofloxacin resistance in first step in vitro selected mutants of S. aureus is predominantly due to specific point mutations in the targets of this drug, topoisomerase IV and gyrase (Cambau and Gutman, 1993; Ferrero et al., 1994).

[8] = test system: most Gram negative microorganisms; conditions: cited from earlier work
[9] = test system: most (≧90%) strains of the following microorganisms (Acinetobacter Iwoffi ... Yersinia enterocolitica); conditions: most (≧90%) strains of listed microorganisms; cited from earlier work
[10] = in vivo; cited from earlier work
[11] = test system: Streptococcus pneumoniae; conditions: cited from earlier work
[12] = molecular target: T1, NorA (Staphylococcus aureus, UniProt P0A0J7); experiment: Screen of DiverSet library for reversing the resistance of B. subtilis strain NA to the NorA substrate ethidium bromide; type: cell-based; conditions: ranking or words
T1 construct: expressed in transfected cells; host or cells: Bacillus subtilis strain NA
T1 sequence (P0A0J7 whole entry): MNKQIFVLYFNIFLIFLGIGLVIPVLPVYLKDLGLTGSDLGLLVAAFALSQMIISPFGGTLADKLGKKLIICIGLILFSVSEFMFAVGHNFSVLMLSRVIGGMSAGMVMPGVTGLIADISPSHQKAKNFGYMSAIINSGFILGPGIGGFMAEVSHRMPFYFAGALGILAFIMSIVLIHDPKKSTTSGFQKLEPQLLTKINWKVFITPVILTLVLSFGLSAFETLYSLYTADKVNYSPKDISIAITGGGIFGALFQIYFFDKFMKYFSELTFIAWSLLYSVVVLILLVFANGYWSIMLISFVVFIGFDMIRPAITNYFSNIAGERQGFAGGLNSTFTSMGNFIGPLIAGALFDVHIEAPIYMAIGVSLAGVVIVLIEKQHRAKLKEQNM
Protocol: One library for the compounds identified in the present invention is DiverSet™ (ChemBridge Corp., Glenview, Ill.) The screening of this library consisting of 9,600 compounds, has been completed. The chemical library was screened for compounds effective, at concentrations of 20 μg/ml or less, in reversing the resistance of a specially created B. subtilis strain NA to the NorA substrate ethidium bromide. Although the present invention employed NorA as the multidrug transporter in the screening assays it will be understood by one of skill in the art that the compounds identified herein will likely have applicability to other multidrug transporters.
In an exemplary assay, in order to identify a candidate substance as an inhibitor of NorA, the B. subtilis strain NA may be used. […]
The DiverSet™ library of chemical compounds was screened for compounds effective, at concentrations of 20 μg/ml or less, in reversing the resistance of a specially created B. subtilis strain NA to the NorA substrate ethidium bromide. […] These three classes of compounds were evaluated using the activity data provided and the CoMFA fields generated to see if a 3D-QSAR relationship was present.

[13] = test system: most strains of certain other organisms (Gram negative aerobes); conditions: most strains of listed Gram negative aerobes; cited from earlier work
[14] = test system: Gram-negative and Gram-positive organisms; conditions: generally, except staphylococci; cited from earlier work
[15] = test system: most strains of the following organisms (Staphylococcus aureus, Staphylococcus epidermidis, various Gram negative bacteria); conditions: most strains of listed organisms; cited from earlier work
[16] = SPC2A, minimal concentration required to decrease the MIC for ciprofloxacin by two fold, N.A. = not active at 5 μg/ml

Row | SMILES | Selectivity Index (Toxicity HeLa/Effectivity) [2] | IC50 ([2]; 3 days, MTS) | FIC index SA1199B [3] | IC50 [4] | FIC index [5] | FIC index NA [6] | Frequency of emergence of variants resistant to two fold the MIC of ciprofloxacin, Spontaneous [7] | Frequency of emergence of variants resistant to two fold the MIC of ciprofloxacin, Mutagenized [7] | Fold inhibition of emergence of resistance [7] | other results
1 | O=[N+]([O-])c1ccc2[nH]c(-c3ccccc3)cc2c1 [INF 55] | 27 | 40 µg/mL (≈ 168 µM) | 0.25 | 1.5 µg/mL (≈ 6.3 µM) | 0.08 | 0.25 | <5 × 10^−11 | <2.5 × 10^−10 | >50 | IC50 [1, 16]: 5 µg/mL (≈ 21 µM)
2 | O=C(/C=C/c1ccccc1)Nc1cccc(/C=C/C(=O)c2ccccc2)c1 [INF 240] | 2.5 | 2 µg/mL (≈ 5.66 µM) | 0.28 | 0.8 µg/mL (≈ 2.26 µM) | 0.16 | 0.12 | <5 × 10^−11 | <2.5 × 10^−10 | >50 | 
3 | COc1ccccc1NC(=O)Nc1ccc2ccccc2c1 [INF 271] | 12 | 18 µg/mL (≈ 61.6 µM) | 0.18 | 1.5 µg/mL (≈ 5.13 µM) | 0.07 | 0.12 | <5 × 10^−11 | <2.5 × 10^−10 | >50 | IC50 [1, 16]: 2.5 µg/mL (≈ 8.55 µM)
4 | CC1(C)CC(=O)C2=C(C1)c1c(ccc3ccccc13)NC2c1cc(Br)ccc1O (stereo not shown) [INF 277] | 6 |  | 0.28 | 0.8 µg/mL (≈ 1.78 µM) | 0.09 | 0.15 | <5 × 10^−11 | <2.5 × 10^−10 | >50 | IC50 [1]: 5 µg/mL (≈ 11.2 µM); IC50 [2]: 5 µg/mL (≈ 11.2 µM)
5 | O=c1nc(SCc2ccccc2)[nH]c2c1[C@H](c1ccccc1)c1ccccc1O2 [INF 392] | 450 |  | 0.15 | 0.1 µg/mL (≈ 0.251 µM) | 0.14 | 0.28 | 5 × 10^−11 | 1 × 10^−9 | 25 | IC50 [1]: 2.5 µg/mL (≈ 6.27 µM); IC50 [2]: 45 µg/mL (≈ 113 µM)
6 | O=C(O)c1cn(C2CC2)c2cc(N3CCNCC3)c(F)cc2c1=O [ciprofloxacin] |  |  |  |  |  |  |  |  |  | MIC90 [8]: ~0.1 µg/mL (≈ 0.302 µM); in vitro minimal inhibitory concentrations (MICs) [9]: ≤ 1 µg/mL; achievable tissue concentration [10]: 4 µg/mL; MIC90 [11]: 1 to 2 µg/mL
7 | O=c1nc(SCc2ccccc2)[nH]c(O)c1C(c1ccccc1)c1ccccc1 [compound 41] |  |  |  |  |  |  |  |  |  | relative inhibitory activity in the initial screening [12]: most active lead compound in this category
8 | CCn1cc(C(=O)O)c(=O)c2cc(F)c(N3CCNCC3)nc21 [enoxacin] |  |  |  |  |  |  |  |  |  | in vitro minimum inhibitory concentrations (MICs) [13]: ≤ 2.0 µg/mL
9 | CC[n+]1c(-c2ccccc2)c2cc(N)ccc2c2ccc(N)cc21 [ethidium, ethidium bromide, reference compound] |  |  |  |  |  |  |  |  |  | MIC ([5]; Bacillus subtilis, read-out: MIC for the strain NA): 40 µg/mL
10 | CCn1cc(C(=O)O)c(=O)c2cc(F)c(N3CCNC(C)C3)c(F)c21 (stereo not shown) [lomefloxacin] |  |  |  |  |  |  |  |  |  | factor by which MBC exceeds MIC [14]: ≤ 2; in vitro MICs [15]: ≤ 2 µg/mL
